The source of these data is patent US20120270844A1, “METHODS FOR TREATING ALZHEIMER'S DISEASE” (aFRAXis, Inc., priority 2009, published 2012).

One experiment deals with PAK3 (Homo sapiens, UniProt O75914). The experiment is described as follows: Z'Lyte fluorescence-based (FRET) PAK kinase assay, PAK3. Conditions: 100 μM ATP. The experiment is classed as biochemical. On the procedure:
A fluorescence-based assay format is used to determine IC50 values of test compounds in vitro. Purified PAK kinase is incubated with ATP, and a test compound at various concentrations and a substrate peptide containing two fluorophores. In a second step, the reaction mix is incubated with a site-specific protease that cleaves non-phosphorylated bat not phosphorylated substrate peptide, disrupting the FRET signal generated by the two fluorophores in the cleaved peptide (Z′Lyte™ Kinase assay platform; Life Technologies).
Reagents: 50 mM HEPES, pH 7.5; 0.01% BRIJ-35; […]; 1 mM EGTA, 2 uM substrate peptide Ser/Thr20 (proprietary Life Technologies Sequence), PAK enzyme [2.42-30.8 ng for PAK1, 0.29-6 ng for PAK2, 1.5-20 ng for PAK3 and 0.1-0.86 ng for PAK4; actual enzyme amounts depend on lot activity of the enzyme preparation]
Test compounds are dissolved in DMSO at various concentrations; the final DMSO concentration in the assay reaction is 1%.
ATP concentration at […] apparent is used in the assay [50 ┌M ATP for PAK1 assay, 75 ┌M ATP for PAK2 assay, 100 μM ATP for PAK3 assay, 5 μM ATP for PAK4 assay] in a total assay volume of 10 μl. Assay reactions are incubated at room temperature for 1 hr. Following the kinase reaction, 5 μl of 1:256 dilution of development solution A (Life Technologies) is added and the reaction mix is incubated for an additional 1 hr at room temperature.
Plates are analyzed in a standard fluorescence plate reader (Tecan or equivalent) using an excitation wavelength of 400 nn and emission wavelengths of 445 nm and 520 nm.
Inhibition of kinase reaction is determined by emission ratio=emission@445 nm/emission@520 nm
A fluorescence-based assay format is used to determine IC50 values of test compounds in vitro. Purified PAK kinase is incubated with ATP, and a test compound at various concentrations and a substrate peptide containing two fluorophores. In a second step, the reaction mix is incubated with a site-specific protease that cleaves non-phosphorylated but not phosphorylated substrate peptide, disrupting the FRET signal generated by the two fluorophores in the cleaved peptide (Z'Lyte™ Kinase assay platform Life Technologies).
Reagents: 50 mM HEPES, pH 7.5; 0.01% BRIJ-35; 10 mM MgCl2; 1 mM EGTA, 2 uM substrate peptide Ser/Thr20 (proprietary Life Technologies Sequence), PAK enzyme [2.42-30.8 ng for PAK1, 0.29-6 ng for PAK2, 1.5-20 ng for PAK3 and 0.1-0.86 ng for PAK4; actual enzyme amounts depend on lot activity of the enzyme preparation]
ATP concentration at Km apparent is used in the assay [50 μMATP for PAK1 assay, 75 µM ATP for PAK2 assay, 100 μM ATP for PAK3 assay, 5 μM ATP for PAK4 assay] in a total assay volume of […] Assay reactions are incubated at room temperature for 1 hr. Following the kinase reaction. […] of 1:256 dilution of development solution A (Life Technologies) is added and the reaction mix is incubated for an additional 1 hr at room temperature.
Plates are analyzed in a standard fluorescence plate reader (Teem or equivalent) using an excitation wavelength of 400 nm and emission wavelengths of 445 nm and 520 nm.

Another experiment has as its target PAK1 (Homo sapiens, UniProt Q13153). The experiment is described as follows: Z'Lyte fluorescence-based (FRET) PAK kinase assay, PAK1. The experiment is classed as biochemical. Conditions: 50 μM ATP. The method, boiled down: (§1)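 Z'Lyte FRET assay: purified PAK with 2 uM Ser/Thr20 peptide in 50 mM HEPES pH 7.5, 10 mM MgCl2, 1% DMSO, ATP at apparent Km (PAK1 50 μM, PAK2 75 μM, PAK3 100 μM, PAK4 5 μM), 1 h room temperature, then 1 h protease development. Inhibition from 445/520 nm emission ratio; IC50 values.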

In a further experiment the target is PAK2 (Homo sapiens, UniProt Q13177). The experiment is described as follows: Z'Lyte fluorescence-based (FRET) PAK kinase assay, PAK2. The format is biochemical. Put shortly:
as §1

The target of the next experiment is PAK4 (Homo sapiens, UniProt O96013). The experiment is described as follows: Z'Lyte fluorescence-based (FRET) PAK kinase assay, PAK4. The format is biochemical. Conditions: 5 μM ATP. The method, boiled down: as §1
Experiment [1] deals with C57/black 6 mice temporal cortex slices. The experiment is described as follows: Slice electrophysiology assay (LTP, theta-burst stimulation). Conditions: 1 μM compound; temporal cortex slices of C57/black 6 mice. The format is cell-based. The procedure:
coronal cortical slices (400 μm) containing temporal cortex from 2- to 3-month-old C57-Black-6 mice male littermates (from Elevage Janvier, FRANCE) are prepared and allowed to recover in oxygenated (95% O2 and 5% CO2) warm (30° C.) artificial cerebrospinal fluid (ACSF) containing 124 mM NaCl, 5 mM KCl, 1.25 mM, NaH2PO4, 1 mM MgCl2, 2 mM CaCl2, 26 mM NaHCO3, and 10 mM dextrose.
a 10 mM DMSO stock solution is prepared for each test compound and 100 μL aliquots are stored at −20° C. On the day of experiment an aliquot is thawed and vortexed for fresh solutions preparation. The final concentration of DMSO is adjusted to 0.1% all solutions, including control ACSF solution. […]
a stimulus is applied every 30 s with an intensity settled at 40% of the maximal amplitude responses. […] Potentiation of synaptic transmission is then monitored for an additional 40 minutes period. […]
following a 10 minutes control recording period (to verify baseline stability), the compound is perfused for 20 minutes. Then, LTP is triggered and the fEPSP amplitude will be recorded for an additional 40 minutes period in the presence of compound.
fEPSP amplitudes are measured as the difference between the baseline (before stimulation) and the maximal peak amplitude. The fEPSP are normalized as a percent of the mean averaged amplitude recorded over a 10 min control period, before compound application. […]

The mark [2] stands for this setting: Table 1 of Example 29 (own compound numbering).
Where [3] appears, read: Table 1 of Example 29 (own compound numbering), 75 µM ATP.
The mark [4] stands for this setting: Table 1 of Example 100, 75 μM ATP.

PAK1, sequence (Q13153 whole entry): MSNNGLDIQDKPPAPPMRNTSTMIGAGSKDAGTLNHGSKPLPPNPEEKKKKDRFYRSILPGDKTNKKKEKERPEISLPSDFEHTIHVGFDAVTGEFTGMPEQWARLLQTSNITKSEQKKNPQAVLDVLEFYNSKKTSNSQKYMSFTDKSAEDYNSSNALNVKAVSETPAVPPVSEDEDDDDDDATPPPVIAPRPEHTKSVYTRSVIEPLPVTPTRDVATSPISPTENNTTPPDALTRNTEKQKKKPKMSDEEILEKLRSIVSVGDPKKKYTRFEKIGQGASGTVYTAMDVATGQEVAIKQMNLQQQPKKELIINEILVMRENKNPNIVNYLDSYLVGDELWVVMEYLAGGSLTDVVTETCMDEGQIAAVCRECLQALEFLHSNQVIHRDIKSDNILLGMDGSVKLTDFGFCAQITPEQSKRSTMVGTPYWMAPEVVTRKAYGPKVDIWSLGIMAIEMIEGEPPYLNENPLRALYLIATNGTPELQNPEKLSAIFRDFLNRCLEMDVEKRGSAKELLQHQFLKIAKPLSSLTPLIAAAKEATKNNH
PAK3, sequence (O75914 whole entry): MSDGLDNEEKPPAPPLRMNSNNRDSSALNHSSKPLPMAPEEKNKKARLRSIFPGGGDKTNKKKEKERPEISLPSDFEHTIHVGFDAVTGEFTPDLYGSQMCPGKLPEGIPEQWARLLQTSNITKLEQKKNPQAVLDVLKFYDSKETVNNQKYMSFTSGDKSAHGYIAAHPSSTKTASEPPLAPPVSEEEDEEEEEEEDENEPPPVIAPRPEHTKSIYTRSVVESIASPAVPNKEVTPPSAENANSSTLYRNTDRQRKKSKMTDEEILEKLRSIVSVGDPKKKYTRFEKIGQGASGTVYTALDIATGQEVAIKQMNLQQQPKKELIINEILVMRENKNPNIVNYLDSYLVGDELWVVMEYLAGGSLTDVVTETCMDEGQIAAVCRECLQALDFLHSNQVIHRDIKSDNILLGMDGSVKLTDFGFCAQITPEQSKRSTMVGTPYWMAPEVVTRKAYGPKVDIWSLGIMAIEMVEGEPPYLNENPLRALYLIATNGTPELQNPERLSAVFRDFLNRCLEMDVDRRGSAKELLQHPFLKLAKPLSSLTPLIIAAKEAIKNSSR
PAK2, sequence (Q13177 whole entry): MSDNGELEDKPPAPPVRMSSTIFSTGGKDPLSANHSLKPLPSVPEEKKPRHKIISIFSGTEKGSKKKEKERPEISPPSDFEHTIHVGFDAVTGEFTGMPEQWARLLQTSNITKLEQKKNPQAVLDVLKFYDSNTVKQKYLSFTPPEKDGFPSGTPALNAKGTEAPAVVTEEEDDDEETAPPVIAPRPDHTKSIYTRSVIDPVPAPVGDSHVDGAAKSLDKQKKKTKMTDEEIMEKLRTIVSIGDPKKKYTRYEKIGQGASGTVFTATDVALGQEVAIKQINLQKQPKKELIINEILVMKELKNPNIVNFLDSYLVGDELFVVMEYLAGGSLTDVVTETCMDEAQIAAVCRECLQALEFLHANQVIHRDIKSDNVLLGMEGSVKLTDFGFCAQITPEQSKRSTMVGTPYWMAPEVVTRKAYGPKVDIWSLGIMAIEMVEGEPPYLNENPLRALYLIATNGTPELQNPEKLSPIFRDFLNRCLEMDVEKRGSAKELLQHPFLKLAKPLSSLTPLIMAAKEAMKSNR
PAK4, sequence (O96013 whole entry): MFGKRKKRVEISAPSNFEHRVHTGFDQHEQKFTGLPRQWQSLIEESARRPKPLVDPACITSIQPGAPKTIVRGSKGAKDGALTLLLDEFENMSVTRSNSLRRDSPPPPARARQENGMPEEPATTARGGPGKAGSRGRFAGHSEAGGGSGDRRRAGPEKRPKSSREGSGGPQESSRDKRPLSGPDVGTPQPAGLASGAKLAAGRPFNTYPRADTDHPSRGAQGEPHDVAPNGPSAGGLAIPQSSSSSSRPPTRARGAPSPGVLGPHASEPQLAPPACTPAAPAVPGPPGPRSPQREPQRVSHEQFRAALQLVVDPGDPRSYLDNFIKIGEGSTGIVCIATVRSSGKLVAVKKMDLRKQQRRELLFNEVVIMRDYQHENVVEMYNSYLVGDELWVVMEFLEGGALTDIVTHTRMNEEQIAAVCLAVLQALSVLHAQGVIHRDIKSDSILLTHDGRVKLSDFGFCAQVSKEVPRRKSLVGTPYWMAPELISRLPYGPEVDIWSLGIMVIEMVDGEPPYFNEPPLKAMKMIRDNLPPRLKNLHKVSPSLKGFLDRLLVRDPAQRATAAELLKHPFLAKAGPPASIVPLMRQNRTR

By IC50 is commonly meant the point on the concentration scale where inhibition reaches its midpoint. A high value points to a need for much substance. Consider `CN1CCN(c2ccc(Nc3ncc4ccc(=O)n(Cc5ccccc5-c5ncno5)c4n3)cc2)CC1` [Compound 127], for which the IC50 against PAK3 (setting [2]) was 1 to 10 µM; at PAK1 (setting [2]), less than 1 µM; at PAK2 (setting [3]), 1 to 10 µM; against PAK4 (setting [2]) it was 1 to 10 µM.

Take `O=c1ccc2cnc(Nc3ccc(N4CCNCC4)c(F)c3)nc2n1Cc1ccccc1-c1ncno1` [Compound 132]: the half-inhibitory concentration (IC50) against PAK3 (setting [2]) is 1 to 10 µM; on PAK1 (setting [2]), less than 1 µM; against PAK2 (setting [3]) it was 1 to 10 µM; against PAK4 (setting [2]) it was 1 to 10 µM.

As to `CN1CCN(c2ccc(Nc3ncc4ccc(=O)n(Cc5c(F)cccc5[S+](C)[O-])c4n3)cc2)CC1` (stereo not drawn) [Compound 139], the IC50 against PAK3 (setting [2]) is less than 1 µM; against PAK1 (setting [2]) it was less than 1 µM; at PAK2 (setting [3]), 1 to 10 µM; on PAK4 (setting [2]), 1 to 10 µM.

For `O=c1c(-c2ccccc2)cc2cnc(Nc3ccc(NC4CCCNC4)cc3)nc2n1Cc1ccccc1C(F)(F)F` (stereo not drawn) [Compound 167], the IC50 against PAK3 (setting [2]) was less than 1 µM; against PAK1 (setting [2]), less than 1 µM; against PAK2 (setting [3]), less than 1 µM; on PAK4 (setting [2]) it was 1 to 10 µM.

Turning to `COc1cc(Nc2nccc(-c3ccc(NCCN)nc3)n2)cc(OC)c1OC` [Compound A, N^1-(5-(2-(3,4,5-trimethoxyphenylamino)pyrimidin-4-yl)pyridin-2-yl)ethane-1,2-diamine], the “LTP compared to the baseline in a theta-burst stimulation protocol in the cortex” value in experiment [1] is recorded as “increased LTP”.

Take `CN1CCN(c2ccc(Nc3ncc4ccc(=O)n(C5CCCC5)c4n3)cc2)CC1` [Compound G, 8-cyclopentyl-2-(4-(4-methylpiperazin-1-yl)phenylamino)pyrido[2,3-d]pyrimidin-7(8H)-one]: in experiment [1], the “LTP compared to the baseline in a theta-burst stimulation protocol in the cortex” value was “increased LTP”.

Consider `CN1CCCC(Nc2ccc(Nc3ncc4ccc(=O)n(Cc5ccccc5C(F)(F)F)c4n3)cc2)C1` (stereo not drawn) [compound 61], for which the IC50 on PAK3 (Table 1 of Example 100), against PAK1 (Table 1 of Example 100), at PAK2 (setting [4]) and at PAK4 (Table 1 of Example 100) was less than 1 µM each time.

Turning to `O=c1ccc2cnc(Nc3ccc(N4CCNCC4)cc3)nc2n1C1CCCc2ccccc21` (stereo not drawn) [compound 61], the IC50 against PAK3 (setting [2]), against PAK1 (setting [2]), against PAK2 (setting [3]) and on PAK4 (setting [2]) was 1 to 10 µM each time.

Regarding `O=c1c(-c2ccccc2)cc2cnc(Nc3ccc(NC4CCCNC4)cc3)nc2n1Cc1ccccc1C(F)(F)F` (stereo not drawn) [compound 95], the IC50 against PAK3 (Table 1 of Example 100) is less than 1 µM; on PAK1 (Table 1 of Example 100), less than 1 µM; against PAK2 (setting [4]), less than 1 µM; against PAK4 (Table 1 of Example 100), 1 to 10 µM.
